Where a name gives a salt, the structure may show the parent alone.
How the values were obtained:
Format in all cases: cell-based
IL-4 production [1] = test: Test 1: inhibition of IL-4 production in human T-cell strain ATL-16T(-) stimulated with PMA (R&D Systems EIA); conditions: ATL-16T(-) 1×10^6 cells/0.5 ml/well, 20 nM PMA, 48 hours, read-out: Inhibition rate of IL-4 production; for inhibition at 10 µM: 10^-5 M; for inhibition at 1 µM: 10^-6 M; for inhibition at 0.1 µM: 10^-7 M; for inhibition at 0.01 µM: 10^-8 M
Description: Test 1: Test on the inhibition of IL-4 production
(§1) Into individual wells of a 48-well microplate, the human T-cell strain ATL-16T(-) was poured at a concentration of 1×10^6 cells/0.5 ml/well (n=3), followed by the addition of a stimulator (20 nM of PMA) and a medicament at the same time. The resulting mixture was incubated in 5% CO2 at 37° C. for 48 hours. After incubation, 100 μl of the supernatant were collected and subjected to measurement by a human IL-4 EIA kit (R&D SYSTEMS, INC.). The inhibition rate was calculated according to the following formula. [formula]

IL-5 production = test: Test 3: inhibition of IL-5 production in human PBMC stimulated with ConA; conditions: 10^-6 M, 10 μg/ml ConA, 48 hours, read-out: Inhibition rate of IL-5 production
Description: Test 3: Test on the inhibition of IL-5 production
The peripheral blood was collected from a normal volunteer and peripheral blood mononuclear cells (PBMC) of the human peripheral blood were separated therefrom by the specific gravity centrifugation method. They were suspended in an AIM-V medium and their cell count was adjusted. To individual wells of a 96-well incubation plate, 1×10^6 cells/ml of PBMC were poured, followed by the addition of a stimulator (10 μg/ml of ConA) and a medicament. The resulting mixture was incubated in 5% CO2 at 37° C. for 48 hours. After incubation, 50 μl of the supernatant were collected and subjected to measurement by a human IL-5 EIA kit (BIO SOURCE, INC.). The inhibition rate was calculated according to the following formula. [formula]

IL-4 production [2] = test: Test 2: inhibition of IL-4 production in human T-cell strain ATL-16T(-) stimulated with PMA (Bio Source EIA); conditions: ATL-16T(-) 5×10^5 cells/0.5 ml/well, 20 nM PMA, 48 hours, read-out: Inhibition rate of IL-4 production; for inhibition at 10 µM: 10^-5 M; for inhibition at 1 µM: 10^-6 M; for inhibition at 0.1 µM: 10^-7 M; for inhibition at 0.01 µM: 10^-8 M
Description: Test 2: Test on the inhibition of IL-4 production
as §1, with “5×10^5” for “1×10^6”, “50” for “100”, “(BIO SOURCE,” for “(R&D SYSTEMS,”

| Compound | inhibition at 10 µM (IL-4 production [1]) [%] | inhibition at 1 µM (IL-4 production [1]) [%] | inhibition at 0.1 µM (IL-4 production [1]) [%] | inhibition at 0.01 µM (IL-4 production [1]) [%] | inhibition at 1 µM (IL-5 production) [%] | inhibition at 10 µM (IL-4 production [2]) [%] | inhibition at 1 µM (IL-4 production [2]) [%] | inhibition at 0.1 µM (IL-4 production [2]) [%] | inhibition at 0.01 µM (IL-4 production [2]) [%] |
| --- | --- | --- | --- | --- | --- | --- | --- | --- | --- |
| COc1cnc(/C=C/C(=O)c2ccccc2)cc1OC(=O)c1ccccc1 [Ex. 43, 4-benzoyloxy-5-methoxy-2-(3-oxo-3-phenyl-1-propenyl)pyridine] | 80.8 | 72.6 | 70.3 | 35.5 | 61.4 |  |  |  |  |
| CCOC(=O)COc1cc(/C=C/C(=O)c2ccccc2)ncc1OC [Ex. 45] | 89.5 | 86.4 | 80.1 | 74 | 64.3 |  |  |  |  |
| CCCCOc1cc(/C=C/C(=O)c2ccccc2)ncc1OC [Ex. 46, 4-Butoxy-5-methoxy-2-(3-oxo-3-phenyl-1-propenyl)pyridine] | 76.6 | 69.1 | 33.8 | 11.8 | 86.9 |  |  |  |  |
| COc1cnc(/C=C/C(=O)c2ccccc2)cc1OCC(=O)c1ccccc1 [Ex. 47, 5-Methoxy-4-(2-oxo-2-phenylethoxy)-2-(3-oxo-3-phenyl-1-propenyl)pyridine] | 113 | 89.6 | 74.1 | 58.9 | 67.2 |  |  |  |  |
| COCCOCOc1cc(/C=C/C(=O)c2ccccc2)ncc1OC [Ex. 48, 5-Methoxy-4-methoxyethoxymethoxy-2-(3-oxo-3-phenyl-1-propenyl)pyridine] | 111 | 74.7 | 50.1 | 7.6 | 62.2 |  |  |  |  |
| COc1cnc(/C=C/C(=O)c2ccccc2[N+](=O)[O-])cc1OC [Ex. 51, 4,5-Dimethoxy-2-[3-(2-nitrophenyl)-3-oxo-1-propenyl]pyridine] |  |  |  |  | 93.6 | 102 | 20.5 | 30.1 | 26.3 |
| COc1cnc(/C=C/C(=O)c2ccc([N+](=O)[O-])cc2)cc1OC [Ex. 52, 4,5-Dimethoxy-2-[3-(4-nitrophenyl)-3-oxo-1-propenyl]pyridine] |  |  |  |  | 64.2 | 76.1 | 48.9 | 25.6 | 11.6 |
| COc1cnc(/C=C/C(=O)c2ccc(Cl)cc2Cl)cc1OC [Ex. 53, 4,5-Dimethoxy-2-[3-(2,4-dichlorophenyl)-3-oxo-1-propenyl]pyridine] |  |  |  |  | 75 | 105 | 103 | 16.7 | 23.1 |
| COc1cnc(/C=C/C(=O)c2c(Cl)cccc2Cl)cc1OC [Ex. 54, 4,5-Dimethoxy-2-[3-(2,6-dichlorophenyl)-3-oxo-1-propenyl]pyridine] |  |  |  |  | 93.3 | 101 | 98.7 | 24.2 | 6.1 |
| COc1cnc(/C=C/C(=O)c2c(OC)cccc2OC)cc1O [Ex. 56, 4-Hydroxy-5-methoxy-2-[3-(2,6-dimethoxyphenyl)-3-oxo-1-propenyl]pyridine] |  |  |  |  | 79.8 | 101 | 53.7 | 47.1 | 42.1 |
| CCOC(=O)CCCOc1cc(/C=C/C(=O)c2ccccn2)ncc1OC [Ex. 70, Ethyl 4-[5-methoxy-2-(3-oxo-3-(2-pyridyl)-1-propenyl]-4-pyridyloxy]butanoate dih ydrochloride] |  |  |  |  | 81.4 | 65.7 | 64.3 | 64 | 60 |
| CCOC(=O)CCCOc1cc(/C=C/C(=O)c2cccnc2)ncc1OC [Ex. 71, Ethyl 4-[5-methoxy-2-(3-oxo-3-(3-pyridyl)-1-propenyl)-4-pyridyloxy]butanoate dih ydrochloride] |  |  |  |  | 93.3 | 81.2 | 69.1 | 68.6 | 61.9 |
| CCOC(=O)CCCOc1cc(/C=C/C(=O)c2ccncc2)ncc1OC [Ex. 72, Ethyl 4-[5-methoxy-2-(3-oxo-3-(4-pyridyl)-1-propenyl)-4-pyridyloxy]butanoate dih ydrochloride] |  |  |  |  | 84.1 | 75.4 | 73.7 | 69.1 | 68.8 |
| COc1cnc(/C=C/C(=O)C2CCCCC2)cc1OC [Ex. 73, 2-(3-Cyclohexyl-3-oxo-1-propenyl)-4,5-dimethoxypyridine hydrochloride] |  |  |  |  | 82.3 | 86.9 | 51.3 | 21.4 | 11.9 |
| COc1cnc(/C=C/C(=O)C2CCCCC2)cc1OC1CCCC1 [Ex. 74, 2-(3-Cyclohexyl-3-oxo-1-propenyl)-4-cyclopentyloxy-5-methoxypyridine] |  |  |  |  | 77.9 | 81.6 | 32.4 | 27.7 | 5.9 |
| CCOC(=O)CCCOc1cc(/C=C/C(=O)C2CCCCC2)ncc1OC [Ex. 76, Ethyl 4-[2-(3-cyclohexyl-3-oxo-1-propenyl)-5-methoxy-4-pyridyloxy]butanoatehydrochloride] |  |  |  |  | 91.2 | 75.3 | 70.5 | 69.1 | 67.7 |
| CCOC(=O)CCCCOc1cc(/C=C/C(=O)C2CCCCC2)ncc1OC [Ex. 78, Ethyl 5-[2-(3-cyclohexyl-3-oxo-1-propenyl)-5-methoxy-4-pyridyloxy]pentanoate hydrochloride] |  |  |  |  | 63.1 | 71.1 | 70.8 | 68.5 | 68.2 |
| CCOC(=O)CCCCCOc1cc(/C=C/C(=O)c2c(OC)cccc2OC)ncc1OC [Ex. 85, Ethyl 6-[5-methoxy-2-(3-(2,6-dimethoxyphenyl)-3-oxo-1-propenyl)-4-pyridyloxy]hexanoate hydrochloride] |  |  |  |  | 75.7 | 86.3 | 77.4 | 77.1 | 73.9 |
| CCOC(=O)CCCOc1cc(/C=C/C(=O)c2ccc(OC)cc2OC)ncc1OC [Ex. 91, Ethyl 4-[5-methoxy-2-(3-(2,4-dimethoxyphenyl)-3-oxo-1-propenyl)-4-pyridyloxy]butanoate hydrochloride] |  |  |  |  | 85.8 | 93.4 | 62.3 | 62.2 | 59.8 |
| CCOC(=O)CCCCOc1cc(/C=C/C(=O)c2ccccc2OC)ncc1OC [Ex. 95, Ethyl 5-[5-methoxy-2-(3-(2-methoxyphenyl)-3-oxo-1-propenyl)-4-pyridyloxy]pentanoate hydrochloride] |  |  |  |  | 65.6 | 105 | 60.9 | 59.2 | 57.3 |

Source: patent publication US6046218A, “Pyridine derivative and medicament containing the same as an effective ingredient” (SS Pharmaceutical Co., Ltd., priority 1996, dated 2000)
